Data published in US9828389B2, “Tetrazolinone compounds and their use as pesticides” (SUMITOMO CHEMICAL COMPANY, LIMITED, priority 2012, dated 2017).

What follows are molecules tested on wheat rust fungi (Puccinia recondita) (assay: Wheat rust control test, foliar spray on wheat). Conditions: Comparative Test Example: wheat (cv; Shirogane), foliar spray 500 ppm, inoculated after 5 days, observed after 1+8 days.
Type: in vivo
Protocol: The spores of wheat rust fungi (Puccinia recondita) were sprinkling-inoculated. After inoculation, the plants were placed under a dark and humid condition at 23° C. for 1 day and were then cultivated at 20° C. under lighting for 8 days and a lesion area was observed.
For `Cc1cc(C)n(-c2ccc(OCc3ccccc3-n3nnn(C)c3=O)c(Cl)c2)n1` [control compound, 1-{2-{2-chloro-4-(3,5-dimethyl-pyrazole-1-yl)-phenoxymethyl}-phenyl}-4-methyl-1,4-dihydrotetrazole-5-one], the “lesion area compared to the lesion area in untreated plants” value was ≥ 70%.

These molecules were tested on cotton aphid (Aphis gossypii) (assay: Cotton aphid control test, spray on infested cucumber). Conditions: 144 h, 20 mL sprayed on cucumber with 30 aphids, counted after 6 days.
Type: in vivo
Protocol: Cucumber (cv; Sagami-hanjiro-fushinari) was grown in a polyethylene cup until the first true leaf was developed. Thirty (30) heads of cotton aphid (Aphis gossypii) (including the adults and the larvae) was released onto the leaves of the […] and next day, the above-mentioned testing drug dilutions 20 mL were sprayed. […] Control value (%)={1−(Cb×Tai)/(Cai×Tb)}×100 wherein the symbols in the formula represent the following descriptions. Cb: Number of the insects before treatment in untreated area; Cai: Number of the insects at the time of the observation in untreated area; Tb: Number of the insects before treatment in treated area; Tai: Number of the insects at the time of the observation in treated area;
`COc1cccc(-n2nnn(C)c2=O)c1COc1ccc(-c2cnn(CC(C)C)c2)cc1C` [Present compound 77, 1-{3-methoxy-2-[2-methyl-4-(1-isobutyl-1H-pyrazole-4-yl)-phenoxymethyl]-phenyl}-4-methyl-1,4-dihydrotetrazole-5-one] was tested, and the pest or weed control at 500 ppm was ≥ 90%. With `CCc1cccc(-n2nnn(C)c2=O)c1COc1ccc(-n2cc(C)c(C)n2)cc1C` [Present compound 53, 1-{3-ethyl-2-[2-methyl-4-(3,4-dimethyl-pyrazol-1-yl)-phenoxymethyl]-phenyl}-4-methyl-1,4-dihydrotetrazole-5-one] the pest or weed control at 500 ppm was ≥ 90%. `Cc1cc(C)n(-c2ccc(OCc3c(Cl)cccc3-n3nnn(C)c3=O)c(Cl)c2)n1` [Present compound 9, 1-{3-chloro-2-[2-chloro-4-(3,5-dimethyl-pyrazol-1-yl)-phenoxymethyl]-phenyl}-4-methyl-1,4-dihydrotetrazole-5-one] was tested, and the pest or weed control at 500 ppm was ≥ 90%. In the case of `Cc1cc(-c2nn(C)c(Cl)c2C)ccc1OCc1c(-n2nnn(C)c2=O)cccc1C(F)(F)F` [Present compound 209, 1-{2-[2-methyl-4-(5-chloro-1,4-dimethyl-1H-pyrazol-3-yl)-phenoxymethyl]-3-trifluoromethyl-phenyl}-4-methyl-, 4-dihydrotetrazole-5-one], the pest or weed control at 500 ppm was ≥ 90%. `CCc1cccc(-n2nnn(C)c2=O)c1COc1ccc(-c2nn(C)c(Cl)c2C)cc1C` [Present compound 206, 1-{3-ethyl-2-[2-methyl-4-(5-chloro-1,4-dimethyl-1H-pyrazol-3-yl)-phenoxymethyl]-phenyl}-4-methyl-1,4-dihydrotetrazole-5-one] was tested, and the pest or weed control at 500 ppm was ≥ 90%. `Cc1ccn(-c2ccc(OCc3c(C)cccc3-n3nnn(C)c3=O)c(C)c2)n1` [Present compound 22, 1-{3-methyl-2-[2-methyl-4-(3-methyl-pyrazol-1-yl)-phenoxymethyl]-phenyl}-4-methyl-1,4-dihydrotetrazole-5-one] was tested, and the pest or weed control at 500 ppm was ≥ 90%. For `CCOc1cccc(-n2nnn(C)c2=O)c1COc1ccc(-c2nn(C)c(Cl)c2C)cc1C` [Present compound 210, 1-{3-ethoxy-2-[2-methyl-4-(5-chloro-1,4-dimethyl-1H-pyrazol-3-yl)-phenoxymethyl]-phenyl}-4-methyl-1,4-dihydrotetrazole-5-one], the pest or weed control at 500 ppm was ≥ 90%. For `Cc1cc(C)n(-c2ccc(OCc3c(Cl)cccc3-n3nnn(C)c3=O)cc2Cl)n1` [Present compound 11, 1-{3-chloro-2-[3-chloro-4-(3,5-dimethyl-pyrazol-1-yl)-phenoxymethyl]-phenyl}-4-methyl-1,4-dihydrotetrazole-5-one], the pest or weed control at 500 ppm was ≥ 90%. For `CCOc1cccc(-n2nnn(C)c2=O)c1COc1ccc(-n2cc(C)c(C)n2)cc1C` [Present compound 129, 1-{3-ethoxy-2-[2-methyl-4-(3,4-dimethyl-pyrazol-1-yl)-phenoxymethyl]-phenyl}-4-methyl-1,4-dihydrotetrazole-5-one], the pest or weed control at 500 ppm was ≥ 90%. For `CCc1cccc(-n2nnn(C)c2=O)c1COc1ccc(-n2nc(C)cc2C)cc1C` [Present compound 50, 1-{3-ethyl-2-[2-methyl-4-(3,5-dimethyl-pyrazol-1-yl)-phenoxymethyl]-phenyl}-4-methyl-1,4-dihydrotetrazole-5-one], the pest or weed control at 500 ppm was ≥ 90%. `CCc1cccc(-n2nnn(C)c2=O)c1COc1ccc(-c2cc(C)n(C)n2)cc1C` [Present compound 59, 1-{3-ethyl-2-[2-methyl-4-(1,5-dimethyl-1H-pyrazol-3-yl)-phenoxymethyl]-phenyl}-4-methyl-1,4-dihydrotetrazole-5-one] was tested, and the pest or weed control at 500 ppm was ≥ 90%. With `COc1cccc(-n2nnn(C)c2=O)c1COc1ccc(-c2nn(C)cc2C)cc1Cl` [Present compound 154, 1-{3-methoxy-2-[2-chloro-4-(1,4-dimethyl-1H-pyrazol-3-yl)-phenoxymethyl]-phenyl}-4-methyl-1,4-dihydrotetrazole-5-one] the pest or weed control at 500 ppm was ≥ 90%. `COc1cccc(-n2nnn(C)c2=O)c1COc1ccc(-c2cnn(C)c2)cc1C` [Present compound 68, 1-{3-methoxy-2-[2-methyl-4-(1-methyl-1H-pyrazole-4-yl)-phenoxymethyl]-phenyl}-4-methyl-1,4-dihydrotetrazole-5-one] was tested, and the pest or weed control at 500 ppm was ≥ 90%. In the case of `COc1cccc(-n2nnn(C)c2=O)c1COc1ccc(-c2ccn(S(C)(=O)=O)n2)cc1C` [Present compound 112, 1-{3-methoxy-2-[2-methyl-4-(1-methanesulfonyl-1H-pyrazol-3-yl)-phenoxymethyl]-phenyl}-4-methyl-1,4-dihydrotetrazole-5-one], the pest or weed control at 500 ppm was ≥ 90%. For `CCn1ccc(-c2ccc(OCc3c(OC)cccc3-n3nnn(C)c3=O)c(C)c2)n1` [Present compound 87, 1-{3-methoxy-2-[2-methyl-4-(1-ethyl-1H-pyrazol-3-yl)-phenoxymethyl]-phenyl}-4-methyl-1,4-dihydrotetrazole-5-one], the pest or weed control at 500 ppm was ≥ 90%.
